Measured values as given in US9535058B2, “Flow chamber analyte detection method” (Drexel University, priority 2010, dated 2017).

Tested on: Bovine aortic endothelial cells (BAECs)
Assay: Shear stress-induced NO production by endothelial cells in the two-compartment flow chamber, NO electrode measurement
Format: cell-based
Conditions: 1 mM L-NAME
Protocol: Bovine aortic endothelial cells (BAECs) were cultured in Dulbecco's modified Eagle's medium (Mediatech Cellgro), supplemented with 10% fetal bovine serum (Sigma), 2 mmol/l L-glutamine (Mediatech Cellgro), and penicillin-streptomycin (Mediatech Cellgro). The cells were grown to confluency and subsequently plated onto the lower surface of individual polyester Transwell® membranes (Corning Transwell Permeable Supports having a 24 mm diameter culture area with 3 μm pores). The Transwell® membranes were then placed in an incubator overnight, inverted and cultured for 1 day before conducting the experimental study. The Transwell® membranes were subsequently washed 3 three times with a solution of Dulbecco's Phosphate Buffered Saline (PBS) with calcium/magnesium (Sigma) supplemented with 70 μM L-arginine (L-arg) (Sigma) and inserted into the flow chamber.
The flow chamber included an electrode and equipment for measuring NO (TBR4100 4-channel Free Radical Analyzer and 200 μm diameter mini sensors for NO measurements ISO-NOPF). The electrodes were frequently recoated with nafion (Sigma) and re-calibrated during the experimental study to improve selectivity. The recoating process involved at least two dip/dry sessions. The electrodes were calibrated by the decomposition of a NO donor S-nitroso-N-acetyl-penicillamine (SNAP) using Cu(II). The SNAP was prepared by dissolving 5 mg EDTA and 5.0 mg+/−2.0 mg of SNAP in 250 mL HPLC grade water. The electrode was immersed in 12 mL of 0.1 M copper(II) sulfate in distilled water for about 1 to about 2 hours until the electrode stabilized. Aliquots of SNAP were sequentially added in an amount of about 10 μL, 20 μL, 40 μL, 80 μL after each signal reached a plateau. A multipoint calibration plot was created using Data-Trax software (produced by WPI). The sampling rate was 10 samples/s. The change in recorded potential was converted to corresponding molarities of NO produced by SNAP addition. The efficiency of the conversion of SNAP to NO was 0.6. Electrode sensitivity was at least about 10 pA/nM. […] The temperature probe supplied by WPI was pre-scaled using a two-point entry of known temperatures (0.03125V=1° C., 0.625V=20° C.).
The dimensions (in cm) of the flow channel were about: 4.57 W×12.19 L×0.025 H. The flow inlet and outlet had large reservoirs with sampling ports. A glass coverslip covered an opening in the bottom plate, allowing visualization of the cell layer and the electrode on an inverted microscope. As shown in FIGS. 5-6, endothelial cells were grown on the lower surface of a Transwell® porous membrane, which fit into the flow chamber flush with the upper plate of the flow chamber. […] Below the Transwell® membrane, fluid flowed through the parallel plate channel that defined the lower compartment, exposing the endothelial cells to uniform shear stress. Above the Transwell® membrane, a stagnant upper fluid compartment, having a small volume housed the NO electrode and temperature sensor. This design placed the electrode out of the fluid flow avoiding problems associated with potential flow sensitivities, flow disturbances and chamber leaking at the electrode insertion site. Furthermore, due to the small volume and zero flux condition at the other boundaries of the stagnant upper fluid compartment and the short diffusion distance through the membrane, the concentration of NO in the upper fluid compartment was nearly uniform and rapidly equilibrated with the concentration in the cell layer. The electrode was lowered into the upper compartment of the flow chamber until it rested on the surface of the Transwell® membrane at a fixed distance from the ECs of about 10 μm equal to the thickness of the membrane. This configuration allowed the NO generated by the cells to be measured abluminally from the endothelial cell layer. Due to the temperature sensitivity of the NO electrode, the flow chamber was enclosed in a water bath at 37° C. in order to prevent heat loss and temperature fluctuations. […]

COC(=O)[C@@H](N)CCCNC(=N)N[N+](=O)[O-] [L-NAME, Nω-Nitro-L-arginine methyl ester]
RNO (NO production rate) as % of RNO estimated from untreated ECs, hyperbolic model (L-arg also in perfusate, shear stress change 0.1 to 20 dyn/cm^2, hyperbolic model fit): about 57.6%
RNO (NO production rate) as % of RNO estimated from untreated ECs, linear model (L-arg also in perfusate, shear stress change 0.1 to 20 dyn/cm^2, linear model fit): about 57.3%
RNO (NO production rate) as % of RNO estimated from untreated ECs, sigmoidal model (L-arg also in perfusate, shear stress change 0.1 to 20 dyn/cm^2, sigmoidal model fit): about 58.3%
reduction of steady-state NO concentration changes in response to shear stress step changes after treatment with L-NAME (pH 7.2, step changes from 0.1 dyn/cm^2 to 1, 6, 10 or 20 dyn/cm^2, vs before treatment, FIG. 10): 40%
effect on shear stress-induced NO concentration changes (Example 1, in words) (flow-induced shear stress stimulation): partially attenuated
steady-state NO concentration changes after treatment, as % of the untreated values (average) (shear stress step changes from 0.1 dyn/cm^2, FIG. 10): 60%
effect on flow induced NO response (Example 2) (step changes from about 1 to about 5 and about 1 to about 10 dyn/cm^2): significantly reduced
